Laboratory results as given in PMC6278385, “Preclinical Pharmacokinetics of C118P, a Novel Prodrug of Microtubules Inhibitor and Its Metabolite C118 in Mice, Rats, and Dogs” (Molecules, 2018).

Assay: Tissue distribution in tumor bearing mice
Assay type: in vivo, nude mice (BALB/cA) implanted with NCI-H460 tumor
Conditions: n=4
Experimental: The nude mice (BALB/cA) implanted with NCI-H460 tumor were provided by Shanghai Institute of Materia Medica. A total of 36 mice were divided into 9 groups with four animals in each group. After fasting overnight with free access to water, the mice were treated with 75 mg/kg C118P by i.v. The blood samples were collected at 2, 10, 20, 40 min, 1, 2, 4, 8, 12 h after treatment and the mice were anaesthetized and decapitated to obtain the blood and tumor tissue. Blood, brain, muscle, ovary, and lung from mice in the PK study were collected at 10 min, 1, 4, and 12 h. Tissues were cleaned by absorbent filter paper to remove the blood. Bloods were centrifuged at 10,000× g for 5 min. Each tissue (0.2 g) was homogenized with 2 mL water. The plasma samples and the homogenates were then processed and determined by the method described above. The concentration was determined by the calibration curve and the actual concentration was corrected by multiplying by 10 according to the dilution times. […]
4. The distribution of CA4P and CA4 in tumor bearing mice.
The nude mice (BALB/cA) implanted with NCI-H460 tumor were provided by Shanghai institute of Materia Medica. A total of 36 mice were divided into 9 groups with 4 animals in each group.
After fasted overnight with free access to water, the mice were treated with 75 mg/kg CA4P by i.v.
The blood samples were collected at 2, 10, 20, 40 min, 1, 2, 4, 8, 12 h after treatment and the mice were anaesthetized and decapitated to obtain the blood and tumor tissue. All procedure are same as C118P in the main text. The concentration was determined by the calibration curve and the actual concentration was corrected by multiplying by 10 according to the dilution times.

[1] = 0.17 h after i.v. 75 mg/kg of CA4P
[2] = 1 h after i.v. 75 mg/kg of CA4P
[3] = 4 h after i.v. 75 mg/kg of CA4P
[4] = 12 h after i.v. 75 mg/kg of CA4P

Row | concentration in Lung [1] | concentration in brain [1] | concentration in ovary [1] | concentration in Lung [2] | concentration in brain [2] | concentration in muscle [2] | concentration in ovary [2] | concentration in Lung [3] | concentration in brain [3] | concentration in muscle [3] | concentration in Tumor [4] | concentration in muscle [4] | Compound | concentration in Plasma [1] | concentration in Tumor [1] | concentration in muscle [1] | concentration in Plasma [2] | concentration in Tumor [2] | concentration in Plasma [3] | concentration in Tumor [3] | concentration in Plasma [4]
1 | 5849.0±580.7 | 16165.3±1211.9 | 44183.5±13169.9 | 759.4±242.6 | 2135.9±486.2 | 595.6±308.4 | 1288.3±711.2 | 106.8±12.1 | 97.6±21.3 | 142.0±33.9 | 735.1±426.2 | 51.9±36.8 | COc1ccc(/C=C\c2cc(OC)c(OC)c(OC)c2)cc1O [CA4, Combretastain A4, reference compound] | 12540.3±972.6 | 9835.7±1345.9 | 8526.1±3505.7 | 595.8±277.7 | 4803.9±770.6 | 21.1±4.5 | 3677.0±1079.9 | –
2 | – | – | – | – | – | – | – | – | – | – | – | – | COc1ccc(/C=C\c2cc(OC)c(OC)c(OC)c2)cc1OP(=O)([O-])[O-].[Na+].[Na+] [CA4P, CA4 phosphate, reference compound] | 15879.9±4473.5 | 142.8±49.2 | 345.2±68.9 | 324.9±105.2 | 26.5±1.4 | 15.0±6.8 | 34.5±1.9 | 12.6±3.3
